Results taken from ChEMBL document CHEMBL4725230, “Syntheses and pharmacokinetic evaluations of four metabolites of 2-(4-(2-((1H-benzo[d]imidazol-2-yl)thio)ethyl)piperazin-1-yl)-N-(6-methyl-2,4-bis-(methylthio)pyridin-3-yl)acetamide hydrochloride [K-604], an acyl-CoA:cholesterol O-acyltransferase-1 inhibitor” (Bioorg Med Chem, 2020).

How the values were obtained:
[1] = Clearance in human liver microsomes assessed per mg protein for 5 mins in presence of NADPH by LC-MS/MS analysis; assay type: ADME, Microsome; conditions: read-out: CLH
Cytochrome P450 [2] = assay: Drug metabolism in human liver microsomes assessed as Vmax for cytochrome p450-mediated 2-(4-(2-((1H-Benzo[d]imidazol-2-yl)thio)ethyl)piperazin-1-yl)-N-(6-methyl-2-(methyl-sulfinyl)-4-(methylthio)pyridin-3-yl)acetamide formation; assay type: ADME
Cytochrome P450 2C9 [3] = target: T1, Cytochrome P450 2C9 (Homo sapiens, UniProt P11712); assay: Drug metabolism in human liver microsomes assessed as CYP2C9-mediated 2-(4-(2-((1H-Benzo[d]imidazol-2-yl)sulfinyl)ethyl)piperazin-1-yl)-N-(6-methyl-2,4-bis(methylthio)pyridin-3-yl)acetamide formation; assay type: ADME
T1 sequence (P11712 whole entry): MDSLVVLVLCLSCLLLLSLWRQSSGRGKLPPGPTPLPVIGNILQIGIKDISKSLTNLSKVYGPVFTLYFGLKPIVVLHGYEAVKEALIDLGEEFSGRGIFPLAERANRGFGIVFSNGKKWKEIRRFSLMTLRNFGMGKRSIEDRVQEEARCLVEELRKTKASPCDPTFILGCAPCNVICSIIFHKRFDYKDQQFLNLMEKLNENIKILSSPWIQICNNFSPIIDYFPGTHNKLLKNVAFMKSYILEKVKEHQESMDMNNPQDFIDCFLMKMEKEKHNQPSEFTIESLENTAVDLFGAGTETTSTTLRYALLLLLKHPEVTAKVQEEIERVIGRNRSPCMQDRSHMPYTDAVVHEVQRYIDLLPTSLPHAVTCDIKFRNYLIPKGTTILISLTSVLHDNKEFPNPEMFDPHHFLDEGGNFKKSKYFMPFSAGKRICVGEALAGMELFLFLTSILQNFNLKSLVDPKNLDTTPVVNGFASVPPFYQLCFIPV

Cytochrome P450 2C9 [4] = target: T1, Cytochrome P450 2C9; assay: Drug metabolism in human liver microsomes assessed as CYP2C9-mediated 2-(4-(2-((5-Hydroxy-1H-benzo[d]imidazol-2-yl)thio)ethyl)piperazin-1-yl)-N-(6-methyl-2,4-bis(methylthio)pyridin-3-yl)acetamide formation; assay type: ADME
Cytochrome P450 [5] = assay: Drug metabolism in human liver microsomes assessed as Km for cytochrome p450-mediated 2-(4-(2-((1H-Benzo[d]imidazol-2-yl)thio)ethyl)piperazin-1-yl)-N-(6-methyl-2-(methyl-sulfinyl)-4-(methylthio)pyridin-3-yl)acetamide formation; assay type: ADME
Cytochrome P450 3A4 [6] = target: T2, Cytochrome P450 3A4 (Homo sapiens, UniProt P08684); assay: Drug metabolism in human liver microsomes assessed as CYP3A4-mediated 2-(4-(2-((1H-Benzo[d]imidazol-2-yl)sulfinyl)ethyl)piperazin-1-yl)-N-(6-methyl-2,4-bis(methylthio)pyridin-3-yl)acetamide formation; assay type: ADME
T2 sequence (P08684 whole entry): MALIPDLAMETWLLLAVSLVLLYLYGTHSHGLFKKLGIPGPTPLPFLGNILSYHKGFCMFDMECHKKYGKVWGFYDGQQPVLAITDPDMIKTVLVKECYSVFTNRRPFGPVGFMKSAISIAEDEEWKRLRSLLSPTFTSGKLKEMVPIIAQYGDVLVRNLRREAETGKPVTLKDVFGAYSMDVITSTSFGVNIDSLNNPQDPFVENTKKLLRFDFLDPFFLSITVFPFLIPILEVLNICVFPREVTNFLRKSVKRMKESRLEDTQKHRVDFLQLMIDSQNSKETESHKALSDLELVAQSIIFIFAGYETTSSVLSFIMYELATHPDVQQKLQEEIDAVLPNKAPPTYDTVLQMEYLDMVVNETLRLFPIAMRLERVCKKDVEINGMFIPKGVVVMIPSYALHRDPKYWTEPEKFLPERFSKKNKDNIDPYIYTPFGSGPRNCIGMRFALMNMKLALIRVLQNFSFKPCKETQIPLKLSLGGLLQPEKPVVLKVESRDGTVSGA

Cytochrome P450 3A5 [7] = target: T3, Cytochrome P450 3A5 (Homo sapiens, UniProt P20815); assay: Drug metabolism in human liver microsomes assessed as CYP3A5-mediated 2-(4-(2-((1H-Benzo[d]imidazol-2-yl)sulfinyl)ethyl)piperazin-1-yl)-N-(6-methyl-2,4-bis(methylthio)pyridin-3-yl)acetamide formation; assay type: ADME
T3 sequence (P20815 whole entry): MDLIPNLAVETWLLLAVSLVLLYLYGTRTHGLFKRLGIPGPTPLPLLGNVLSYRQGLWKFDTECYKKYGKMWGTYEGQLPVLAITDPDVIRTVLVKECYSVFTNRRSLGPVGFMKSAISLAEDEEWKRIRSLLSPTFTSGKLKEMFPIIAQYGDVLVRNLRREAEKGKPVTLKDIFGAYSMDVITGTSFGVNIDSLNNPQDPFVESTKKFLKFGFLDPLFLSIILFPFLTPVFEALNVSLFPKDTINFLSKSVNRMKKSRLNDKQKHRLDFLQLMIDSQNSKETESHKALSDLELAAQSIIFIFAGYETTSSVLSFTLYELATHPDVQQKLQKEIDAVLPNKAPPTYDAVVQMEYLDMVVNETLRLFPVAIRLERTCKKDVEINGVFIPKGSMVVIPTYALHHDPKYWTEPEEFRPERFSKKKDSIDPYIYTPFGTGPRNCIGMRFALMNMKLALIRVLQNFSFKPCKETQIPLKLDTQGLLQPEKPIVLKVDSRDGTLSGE

Cytochrome P450 3A4 [8] = target: T2, Cytochrome P450 3A4; assay: Drug metabolism in human liver microsomes assessed as CYP3A4-mediated 2-(4-(2-((1H-Benzo[d]imidazol-2-yl)thio)ethyl)piperazin-1-yl)-N-(6-methyl-4-(methylsulfinyl)-2-(methylthio)pyridin-3-yl)acetamide formation; assay type: ADME
[9] = Drug metabolism in cynomolgus monkey plasma assessed as 2-(4-(2-((1H-Benzo[d]imidazol-2-yl)sulfinyl)ethyl)piperazin-1-yl)-N-(6-methyl-2,4-bis(methylthio)pyridin-3-yl)acetamide formation at 10 mg/kg, administered into stomach using nasogastric catheter measured upto 360 mins by column-switching HPLC method; assay type: ADME, organism-based, Macaca fascicularis; conditions: in vivo, po, 6 h
[10] = Clearance in human liver microsomes assessed as 2-(4-(2-((1H-Benzo[d]imidazol-2-yl)sulfinyl)ethyl)piperazin-1-yl)-N-(6-methyl-2,4-bis(methylthio)pyridin-3-yl)acetamide level per mg protein; assay type: ADME, Microsome
[11] = Drug metabolism in cynomolgus monkey plasma assessed as 2-(4-(2-((1H-Benzo[d]imidazol-2-yl)thio)ethyl)piperazin-1-yl)-N-(6-methyl-4-(methylsulfinyl)-2-(methylthio)pyridin-3-yl)acetamide formation at 10 mg/kg, administered into stomach using nasogastric catheter measured upto 360 mins by column-switching HPLC method; assay type: ADME, organism-based, Macaca fascicularis; conditions: in vivo, po, 6 h
Cytochrome P450 3A5 [12] = target: T3, Cytochrome P450 3A5; assay: Drug metabolism in human liver microsomes assessed as CYP3A5-mediated 2-(4-(2-((1H-Benzo[d]imidazol-2-yl)thio)ethyl)piperazin-1-yl)-N-(6-methyl-2-(methyl-sulfinyl)-4-(methylthio)pyridin-3-yl)acetamide formation; assay type: ADME
Cytochrome P450 2C9 [13] = target: T1, Cytochrome P450 2C9; assay: Drug metabolism in human liver microsomes assessed as CYP2C9-mediated 2-(4-(2-((1H-Benzo[d]imidazol-2-yl)thio)ethyl)piperazin-1-yl)-N-(6-methyl-4-(methylsulfinyl)-2-(methylthio)pyridin-3-yl)acetamide formation; assay type: ADME
[14] = Drug metabolism in cynomolgus monkey plasma assessed as 2-(4-(2-((5-Hydroxy-1H-benzo[d]imidazol-2-yl)thio)ethyl)piperazin-1-yl)-N-(6-methyl-2,4-bis(methylthio)pyridin-3-yl)acetamide formation at 10 mg/kg, administered into stomach using nasogastric catheter measured upto 360 mins by column-switching HPLC method; assay type: ADME, organism-based, Macaca fascicularis; conditions: in vivo, po, 6 h
Cytochrome P450 3A4 [15] = target: T2, Cytochrome P450 3A4; assay: Drug metabolism in human liver microsomes assessed as CYP3A4-mediated 2-(4-(2-((1H-Benzo[d]imidazol-2-yl)thio)ethyl)piperazin-1-yl)-N-(6-methyl-2-(methyl-sulfinyl)-4-(methylthio)pyridin-3-yl)acetamide formation; assay type: ADME
[16] = Clearance in human liver microsomes assessed as 2-(4-(2-((1H-Benzo[d]imidazol-2-yl)thio)ethyl)piperazin-1-yl)-N-(6-methyl-2-(methyl-sulfinyl)-4-(methylthio)pyridin-3-yl)acetamide level per mg protein; assay type: ADME, Microsome
Cytochrome P450 2C11 = target: T4, Cytochrome P450 2C11 (Rattus norvegicus, UniProt P08683); assay: Drug metabolism in […] rat liver microsomes assessed as CYP2C11-mediated 2-(4-(2-((1H-Benzo[d]imidazol-2-yl)thio)ethyl)piperazin-1-yl)-N-(6-methyl-4-(methylsulfinyl)-2-(methylthio)pyridin-3-yl)acetamide formation; assay type: ADME
T4 sequence (P08683 whole entry): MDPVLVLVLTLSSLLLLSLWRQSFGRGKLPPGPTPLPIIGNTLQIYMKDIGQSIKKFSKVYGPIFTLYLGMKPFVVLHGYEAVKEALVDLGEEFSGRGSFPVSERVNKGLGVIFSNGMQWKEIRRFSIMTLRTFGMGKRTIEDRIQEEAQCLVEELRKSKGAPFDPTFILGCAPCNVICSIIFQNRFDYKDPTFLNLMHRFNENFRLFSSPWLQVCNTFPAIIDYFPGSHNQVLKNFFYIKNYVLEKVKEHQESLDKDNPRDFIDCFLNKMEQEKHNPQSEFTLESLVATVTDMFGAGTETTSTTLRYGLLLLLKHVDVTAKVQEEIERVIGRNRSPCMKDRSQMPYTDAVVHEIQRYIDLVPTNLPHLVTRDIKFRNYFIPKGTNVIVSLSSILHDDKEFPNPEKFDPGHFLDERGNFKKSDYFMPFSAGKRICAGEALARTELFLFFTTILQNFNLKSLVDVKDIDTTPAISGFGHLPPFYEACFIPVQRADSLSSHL

Cytochrome P450 3A2 [17] = target: T5, Cytochrome P450 3A2 (Rattus norvegicus, UniProt P05183); assay: Drug metabolism in male rat liver microsomes assessed as CYP3A2-mediated 2-(4-(2-((1H-Benzo[d]imidazol-2-yl)thio)ethyl)piperazin-1-yl)-N-(6-methyl-4-(methylsulfinyl)-2-(methylthio)pyridin-3-yl)acetamide formation; assay type: ADME
T5 sequence (P05183 whole entry): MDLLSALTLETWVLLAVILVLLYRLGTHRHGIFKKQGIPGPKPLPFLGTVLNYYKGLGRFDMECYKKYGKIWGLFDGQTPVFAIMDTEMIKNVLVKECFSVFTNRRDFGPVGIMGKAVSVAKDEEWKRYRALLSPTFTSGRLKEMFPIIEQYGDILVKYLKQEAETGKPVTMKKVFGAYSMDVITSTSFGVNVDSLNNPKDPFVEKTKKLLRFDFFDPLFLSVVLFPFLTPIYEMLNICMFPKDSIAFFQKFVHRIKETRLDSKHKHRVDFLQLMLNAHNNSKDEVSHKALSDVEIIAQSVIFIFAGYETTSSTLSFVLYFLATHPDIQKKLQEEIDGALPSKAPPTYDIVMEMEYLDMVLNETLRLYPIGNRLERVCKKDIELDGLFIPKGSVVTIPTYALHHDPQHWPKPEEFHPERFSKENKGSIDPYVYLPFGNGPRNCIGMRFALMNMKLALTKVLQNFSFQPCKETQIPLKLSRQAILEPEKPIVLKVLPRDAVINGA

Cytochrome P450 [18] = assay: Drug metabolism in human liver microsomes assessed as Km for cytochrome p450-mediated 2-(4-(2-((5-Hydroxy-1H-benzo[d]imidazol-2-yl)thio)ethyl)piperazin-1-yl)-N-(6-methyl-2,4-bis(methylthio)pyridin-3-yl)acetamide formation; assay type: ADME
[19] = Metabolic stability in male rat liver microsomes assessed as assessed as parent compound remaining; assay type: ADME, Microsome
Cytochrome P450 3A4 [20] = target: T2, Cytochrome P450 3A4; assay: Drug metabolism in human liver microsomes assessed as CYP3A4-mediated 2-(4-(2-((5-Hydroxy-1H-benzo[d]imidazol-2-yl)thio)ethyl)piperazin-1-yl)-N-(6-methyl-2,4-bis(methylthio)pyridin-3-yl)acetamide formation; assay type: ADME
Cytochrome P450 [21] = assay: Drug metabolism in human liver microsomes assessed as Vmax for cytochrome p450-mediated 2-(4-(2-((1H-Benzo[d]imidazol-2-yl)thio)ethyl)piperazin-1-yl)-N-(6-methyl-4-(methylsulfinyl)-2-(methylthio)pyridin-3-yl)acetamide formation; assay type: ADME
Cytochrome P450 [22] = assay: Drug metabolism in human liver microsomes assessed as Vmax for cytochrome p450-mediated 2-(4-(2-((5-Hydroxy-1H-benzo[d]imidazol-2-yl)thio)ethyl)piperazin-1-yl)-N-(6-methyl-2,4-bis(methylthio)pyridin-3-yl)acetamide formation; assay type: ADME
Cytochrome P450 [23] = assay: Drug metabolism in human liver microsomes assessed as Km for cytochrome p450-mediated 2-(4-(2-((1H-Benzo[d]imidazol-2-yl)sulfinyl)ethyl)piperazin-1-yl)-N-(6-methyl-2,4-bis(methylthio)pyridin-3-yl)acetamide formation; assay type: ADME
[24] = Metabolic stability in cynomolgus monkey plasma assessed as parent compound remaining formation at 10 mg/kg, administered into stomach using nasogastric catheter measured upto 360 mins by column-switching HPLC method; assay type: ADME, organism-based, Macaca fascicularis; conditions: in vivo, po, 6 h
Cytochrome P450 [25] = assay: Drug metabolism in human liver microsomes assessed as Km for cytochrome p450-mediated 2-(4-(2-((1H-Benzo[d]imidazol-2-yl)thio)ethyl)piperazin-1-yl)-N-(6-methyl-4-(methylsulfinyl)-2-(methylthio)pyridin-3-yl)acetamide formation; assay type: ADME
Cytochrome P450 3A5 [26] = target: T3, Cytochrome P450 3A5; assay: Drug metabolism in human liver microsomes assessed as CYP3A5-mediated 2-(4-(2-((5-Hydroxy-1H-benzo[d]imidazol-2-yl)thio)ethyl)piperazin-1-yl)-N-(6-methyl-2,4-bis(methylthio)pyridin-3-yl)acetamide formation; assay type: ADME
Cytochrome P450 [27] = assay: Drug metabolism in human liver microsomes assessed as Vmax for cytochrome p450-mediated 2-(4-(2-((1H-Benzo[d]imidazol-2-yl)sulfinyl)ethyl)piperazin-1-yl)-N-(6-methyl-2,4-bis(methylthio)pyridin-3-yl)acetamide formation; assay type: ADME
[28] = Metabolic stability in female rat liver microsomes assessed as parent compound remaining; assay type: ADME, Microsome
Cytochrome P450 3A2 [29] = target: T5, Cytochrome P450 3A2; assay: Drug metabolism in male rat liver microsomes assessed as CYP3A2-mediated 2-(4-(2-((1H-Benzo[d]imidazol-2-yl)thio)ethyl)piperazin-1-yl)-N-(6-methyl-2-(methyl-sulfinyl)-4-(methylthio)pyridin-3-yl)acetamide formation; assay type: ADME
[30] = Drug metabolism in cynomolgus monkey plasma assessed as 2-(4-(2-((1H-Benzo[d]imidazol-2-yl)thio)ethyl)piperazin-1-yl)-N-(6-methyl-2-(methyl-sulfinyl)-4-(methylthio)pyridin-3-yl)acetamide formation at 10 mg/kg, administered into stomach using nasogastric catheter measured upto 360 mins by column-switching HPLC method; assay type: ADME, organism-based, Macaca fascicularis; conditions: in vivo, po, 6 h
Cytochrome P450 3A5 [31] = target: T3, Cytochrome P450 3A5; assay: Drug metabolism in human liver microsomes assessed as CYP3A5-mediated 2-(4-(2-((1H-Benzo[d]imidazol-2-yl)thio)ethyl)piperazin-1-yl)-N-(6-methyl-4-(methylsulfinyl)-2-(methylthio)pyridin-3-yl)acetamide formation; assay type: ADME
[32] = Clearance in human liver microsomes assessed as 2-(4-(2-((1H-Benzo[d]imidazol-2-yl)thio)ethyl)piperazin-1-yl)-N-(6-methyl-4-(methylsulfinyl)-2-(methylthio)pyridin-3-yl)acetamide level per mg protein; assay type: ADME, Microsome
Cytochrome P450 2D6 = Cytochrome P450 2D6 (Homo sapiens, UniProt P10635); assay: Drug metabolism in human liver microsomes assessed as CYP2D6-mediated 2-(4-(2-((1H-Benzo[d]imidazol-2-yl)thio)ethyl)piperazin-1-yl)-N-(6-methyl-4-(methylsulfinyl)-2-(methylthio)pyridin-3-yl)acetamide formation; assay type: ADME
Cytochrome P450 2D6, sequence (P10635 whole entry): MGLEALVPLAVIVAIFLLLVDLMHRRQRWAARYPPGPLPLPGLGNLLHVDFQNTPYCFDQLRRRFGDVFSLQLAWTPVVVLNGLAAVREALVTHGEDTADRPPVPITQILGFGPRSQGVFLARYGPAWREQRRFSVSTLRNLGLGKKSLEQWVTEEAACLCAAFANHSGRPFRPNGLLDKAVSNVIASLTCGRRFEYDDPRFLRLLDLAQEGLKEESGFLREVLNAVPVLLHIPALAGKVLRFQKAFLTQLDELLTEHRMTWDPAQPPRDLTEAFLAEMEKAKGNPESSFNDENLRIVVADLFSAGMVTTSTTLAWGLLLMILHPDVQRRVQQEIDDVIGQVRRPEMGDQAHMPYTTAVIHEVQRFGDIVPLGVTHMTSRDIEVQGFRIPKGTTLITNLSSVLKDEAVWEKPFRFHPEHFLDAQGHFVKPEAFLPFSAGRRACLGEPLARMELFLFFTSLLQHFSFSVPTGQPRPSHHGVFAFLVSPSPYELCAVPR

Cytochrome P450 2C9 [33] = target: T1, Cytochrome P450 2C9; assay: Drug metabolism in human liver microsomes assessed as CYP2C9-mediated 2-(4-(2-((1H-Benzo[d]imidazol-2-yl)thio)ethyl)piperazin-1-yl)-N-(6-methyl-2-(methyl-sulfinyl)-4-(methylthio)pyridin-3-yl)acetamide formation; assay type: ADME
[34] = Clearance in human liver microsomes assessed as 2-(4-(2-((5-Hydroxy-1H-benzo[d]imidazol-2-yl)thio)ethyl)piperazin-1-yl)-N-(6-methyl-2,4-bis(methylthio)pyridin-3-yl)acetamide level per mg protein; assay type: ADME, Microsome

microsomal CLint [1]: 720 µL/min/mg
Vmax (Cytochrome P450 [2]): 363 pmol/min/mg
Drug metabolism (Cytochrome P450 2C9 [3]): Metabolite_Notdetected
Drug metabolism (Cytochrome P450 2C9 [4]): Metabolite_Notdetected
Km (Cytochrome P450 [5]): 4.3 µM
Drug metabolism (Cytochrome P450 3A4 [6]): Metabolite_Detected
Drug metabolism (Cytochrome P450 3A5 [7]): Metabolite_Detected
Drug metabolism (Cytochrome P450 3A4 [8]): Metabolite_Detected
Drug metabolism [9]: Metabolite_Detected
CLH [10]: 219 µL/min
Drug metabolism [11]: Metabolite_Detected
Drug metabolism (Cytochrome P450 3A5 [12]): Metabolite_Detected
Drug metabolism (Cytochrome P450 2C9 [13]): Metabolite_Notdetected
Drug metabolism [14]: Metabolite_Detected
Drug metabolism (Cytochrome P450 3A4 [15]): Metabolite_Detected
CLH [16]: 125 µL/min
Drug metabolism (Cytochrome P450 2C11): Metabolite_Notdetected
Drug metabolism (Cytochrome P450 3A2 [17]): Metabolite_Detected
Km (Cytochrome P450 [18]): 2 µM
Stabilty [19]: 5.2%
Drug metabolism (Cytochrome P450 3A4 [20]): Metabolite_Detected
Vmax (Cytochrome P450 [21]): 1773 pmol/min/mg
Vmax (Cytochrome P450 [22]): 343 pmol/min/mg
Km (Cytochrome P450 [23]): 2.6 µM
Stabilty [24]: Stable
Km (Cytochrome P450 [25]): 1.3 µM
Drug metabolism (Cytochrome P450 3A5 [26]): Metabolite_Detected
Vmax (Cytochrome P450 [27]): 558 pmol/min/mg
Stabilty [28]: 76.1%
Drug metabolism (Cytochrome P450 3A2 [29]): Metabolite_Detected
Drug metabolism [30]: Metabolite_Notdetected
Drug metabolism (Cytochrome P450 3A5 [31]): Metabolite_Detected
CLH [32]: 1353 µL/min
Drug metabolism (Cytochrome P450 2D6): Metabolite_Detected
Drug metabolism (Cytochrome P450 2C9 [33]): Metabolite_Notdetected
CLH [34]: 168 µL/min
Structure (SMILES): CSc1cc(C)nc(SC)c1NC(=O)CN1CCN(CCSc2nc3ccccc3[nH]2)CC1.Cl
